Experimental data reported in PubChem BioAssay (NCI).
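Each compound was tested at five concentrations against cells in 96-well plates for 48 hours. TGI: concentration producing complete growth inhibition.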

Assays:
Experiment in all cases: DTP human tumour cell line panel, 48 h
NCI-H23 lung = system: NCI-H23 lung
HL-60(TB) leukemia = system: HL-60(TB) leukemia
HCC-2998 colon = system: HCC-2998 colon
M14 melanoma = system: M14 melanoma
SK-MEL-5 melanoma = system: SK-MEL-5 melanoma
HOP-18 NSCLC = system: HOP-18 NSCLC
SK-MEL-28 melanoma = system: SK-MEL-28 melanoma
UO-31 renal = system: UO-31 renal
ACHN renal = system: ACHN renal
IGROV1 ovarian = system: IGROV1 ovarian
HCT-116 colon = system: HCT-116 colon
EKVX NSCLC = system: EKVX NSCLC
SF-295 CNS = system: SF-295 CNS
KM12 colon = system: KM12 colon
CAKI-1 renal = system: CAKI-1 renal
DMS 114 small cell lung = system: DMS 114 small cell lung
SNB-78 CNS = system: SNB-78 CNS
MOLT-4 leukemia = system: MOLT-4 leukemia
RXF-631 renal = system: RXF-631 renal
K-562 leukemia = system: K-562 leukemia
HT29 colon = system: HT29 colon
NCI-H522 lung = system: NCI-H522 lung
KM20L2 colon = system: KM20L2 colon
HOP-62 NSCLC = system: HOP-62 NSCLC
TK-10 renal = system: TK-10 renal
A549 NSCLC = system: A549 NSCLC
SNB-75 CNS = system: SNB-75 CNS
HCT-15 colon = system: HCT-15 colon
UACC-257 melanoma = system: UACC-257 melanoma
OVCAR-3 ovarian = system: OVCAR-3 ovarian
SK-MEL-2 melanoma = system: SK-MEL-2 melanoma
RPMI-8226 leukemia = system: RPMI-8226 leukemia
SF-539 CNS = system: SF-539 CNS
A498 renal = system: A498 renal
SR leukemia = system: SR leukemia
MALME-3M melanoma = system: MALME-3M melanoma
COLO 205 colon = system: COLO 205 colon
XF 498 CNS = system: XF 498 CNS
M19-MEL melanoma = system: M19-MEL melanoma
CCRF-CEM leukemia = system: CCRF-CEM leukemia
SN12C renal = system: SN12C renal
OVCAR-4 ovarian = system: OVCAR-4 ovarian
SF-268 CNS = system: SF-268 CNS
SK-OV-3 ovarian = system: SK-OV-3 ovarian
OVCAR-5 ovarian = system: OVCAR-5 ovarian
SNB-19 CNS = system: SNB-19 CNS
SW-620 colon = system: SW-620 colon
NCI-H226 lung = system: NCI-H226 lung
RXF 393 renal = system: RXF 393 renal
OVCAR-8 ovarian = system: OVCAR-8 ovarian
NCI-H460 lung = system: NCI-H460 lung
HOP-92 NSCLC = system: HOP-92 NSCLC
DLD-1 colon = system: DLD-1 colon
DMS 273 small cell lung = system: DMS 273 small cell lung
UACC-62 melanoma = system: UACC-62 melanoma
U251 CNS = system: U251 CNS
LOX IMVI melanoma = system: LOX IMVI melanoma
LXFL 529 NSCLC = system: LXFL 529 NSCLC
786-0 renal = system: 786-0 renal

## COc1c(OC2OC(CO)C(O)C(O)C2O)cc2c(c1OC)-c1ccc(OC)c(=O)cc1C(NC(C)=O)CC2 (configuration not stated)
NCI-H23 lung
  TGI: > 100 µM
HL-60(TB) leukemia
  TGI: > 100 µM
HCC-2998 colon
  TGI: > 100 µM
M14 melanoma
  TGI: > 100 µM
SK-MEL-5 melanoma
  TGI: > 100 µM
HOP-18 NSCLC
  TGI: > 100 µM
SK-MEL-28 melanoma
  TGI: > 100 µM
UO-31 renal
  TGI: > 100 µM
ACHN renal
  TGI: > 100 µM
IGROV1 ovarian
  TGI: > 100 µM
HCT-116 colon
  TGI: > 100 µM
EKVX NSCLC
  TGI: > 100 µM
SF-295 CNS
  TGI: > 100 µM
KM12 colon
  TGI: > 100 µM
CAKI-1 renal
  TGI: > 100 µM
DMS 114 small cell lung
  TGI: > 100 µM
SNB-78 CNS
  TGI: > 100 µM
MOLT-4 leukemia
  TGI: > 100 µM
RXF-631 renal
  TGI: > 100 µM
K-562 leukemia
  TGI: > 100 µM
HT29 colon
  TGI: > 100 µM
NCI-H522 lung
  TGI: > 100 µM
KM20L2 colon
  TGI: > 100 µM
HOP-62 NSCLC
  TGI: > 100 µM
TK-10 renal
  TGI: > 100 µM
A549 NSCLC
  TGI: > 100 µM
SNB-75 CNS
  TGI: > 84.4 µM
HCT-15 colon
  TGI: > 100 µM
UACC-257 melanoma
  TGI: > 100 µM
OVCAR-3 ovarian
  TGI: > 100 µM
SK-MEL-2 melanoma
  TGI: > 100 µM
RPMI-8226 leukemia
  TGI: > 100 µM
SF-539 CNS
  TGI: > 100 µM
A498 renal
  TGI: > 100 µM
SR leukemia
  TGI: > 100 µM
MALME-3M melanoma
  TGI: > 100 µM
COLO 205 colon
  TGI: > 100 µM
XF 498 CNS
  TGI: > 100 µM
M19-MEL melanoma
  TGI: > 100 µM
CCRF-CEM leukemia
  TGI: > 100 µM
SN12C renal
  TGI: > 100 µM
OVCAR-4 ovarian
  TGI: > 100 µM
SF-268 CNS
  TGI: > 100 µM
SK-OV-3 ovarian
  TGI: > 100 µM
OVCAR-5 ovarian
  TGI: > 100 µM
SNB-19 CNS
  TGI: > 100 µM
SW-620 colon
  TGI: > 100 µM
NCI-H226 lung
  TGI: > 100 µM
RXF 393 renal
  TGI: > 100 µM
OVCAR-8 ovarian
  TGI: > 100 µM
NCI-H460 lung
  TGI: > 100 µM
HOP-92 NSCLC
  TGI: > 100 µM
DLD-1 colon
  TGI: > 100 µM
DMS 273 small cell lung
  TGI: > 100 µM
UACC-62 melanoma
  TGI: > 100 µM
U251 CNS
  TGI: > 100 µM
LOX IMVI melanoma
  TGI: > 100 µM
LXFL 529 NSCLC
  TGI: > 100 µM
786-0 renal
  TGI: > 100 µM

## CC(C)N(C(=O)C12C3C4C1C1C4(C#N)C3C12C(=O)O)C(C)C (configuration not stated)
NCI-H23 lung
  TGI: > 100 µM
HL-60(TB) leukemia
  TGI: > 63 µM
HCC-2998 colon
  TGI: > 100 µM
M14 melanoma
  TGI: > 100 µM
SK-MEL-5 melanoma
  TGI: > 100 µM
HOP-18 NSCLC
  TGI: > 100 µM
SK-MEL-28 melanoma
  TGI: > 100 µM
UO-31 renal
  TGI: > 100 µM
ACHN renal
  TGI: > 100 µM
IGROV1 ovarian
  TGI: > 100 µM
HCT-116 colon
  TGI: > 100 µM
EKVX NSCLC
  TGI: > 100 µM
SF-295 CNS
  TGI: > 100 µM
KM12 colon
  TGI: > 100 µM
CAKI-1 renal
  TGI: > 100 µM
DMS 114 small cell lung
  TGI: > 100 µM
SNB-78 CNS
  TGI: > 100 µM
MOLT-4 leukemia
  TGI: > 100 µM
RXF-631 renal
  TGI: > 100 µM
K-562 leukemia
  TGI: > 100 µM
HT29 colon
  TGI: > 100 µM
NCI-H522 lung
  TGI: > 100 µM
KM20L2 colon
  TGI: > 100 µM
HOP-62 NSCLC
  TGI: > 100 µM
TK-10 renal
  TGI: > 100 µM
A549 NSCLC
  TGI: > 100 µM
SNB-75 CNS
  TGI: > 100 µM
HCT-15 colon
  TGI: > 68.2 µM
UACC-257 melanoma
  TGI: > 100 µM
OVCAR-3 ovarian
  TGI: > 100 µM
SK-MEL-2 melanoma
  TGI: > 100 µM
RPMI-8226 leukemia
  TGI: > 66.7 µM
SF-539 CNS
  TGI: > 100 µM
A498 renal
  TGI: > 100 µM
SR leukemia
  TGI: 41.4 µM
MALME-3M melanoma
  TGI: > 100 µM
COLO 205 colon
  TGI: > 100 µM
XF 498 CNS
  TGI: > 100 µM
M19-MEL melanoma
  TGI: > 100 µM
CCRF-CEM leukemia
  TGI: > 82 µM
SN12C renal
  TGI: > 100 µM
OVCAR-4 ovarian
  TGI: > 100 µM
SF-268 CNS
  TGI: > 100 µM
SK-OV-3 ovarian
  TGI: > 100 µM
OVCAR-5 ovarian
  TGI: > 100 µM
SNB-19 CNS
  TGI: > 100 µM
SW-620 colon
  TGI: > 100 µM
NCI-H226 lung
  TGI: > 100 µM
OVCAR-8 ovarian
  TGI: > 100 µM
NCI-H460 lung
  TGI: > 100 µM
HOP-92 NSCLC
  TGI: > 100 µM
DLD-1 colon
  TGI: > 100 µM
DMS 273 small cell lung
  TGI: > 100 µM
UACC-62 melanoma
  TGI: > 100 µM
U251 CNS
  TGI: > 100 µM
LOX IMVI melanoma
  TGI: > 100 µM
LXFL 529 NSCLC
  TGI: > 100 µM
786-0 renal
  TGI: > 100 µM
